In US20210260101A1, “POTENTIATED ANTIBIOTIC COMPOSITIONS AND METHODS OF USE FOR TREATING BACTERIAL INFECTIONS AND BIOFILMS” (priority 2018, published 2021):
Where “and” joins values, the source holds several entries; their conditions need not be identical. Equal values may be shown once. Read-outs that look alike come from different tables or passages of the source.

Legend:
[1] = system: E. coli 25922; test: MIC/potentiation against E. coli 25922; type: cell-based, Escherichia coli; conditions: 3×10^5 CFU/mL
[2] = system: P. aeruginosa ATCC BAA-47; test: Checkerboard assay (Example 5), PA BAA-47; type: cell-based, Pseudomonas aeruginosa
Protocol: (§1) Cells were grown at 35° C. with shaking. The OD600 (optical density at 600 nm) was monitored and recorded for each sample over 24 hr. Each checkerboard trial was done in triplicate using sterile Greiner CellStar™ flat bottom polystyrene plates, catalog #655180. Each growth curve was done in duplicate.

[3] = system: P. aeruginosa OU1 (PA OU1); test: Checkerboard assay, clinical isolate PA OU1; type: cell-based, Pseudomonas aeruginosa
Protocol: (§2) Cells were grown at 37° C. The change in OD600 (optical density at 600 nm) was measured and recorded after 24 hr of treatment. Each checkerboard trial was done in triplicate using sterile Greiner CellStar™ flat bottom polystyrene plates, catalog #655180.
as §1

[4] = system: MRSE 35984 biofilm formation; test: Crystal violet biofilm formation inhibition (MBIC); type: cell-based, Staphylococcus epidermidis
Description: Additionally, higher concentrations of BPEI corresponded to greater inhibition of biofilm formation.

[5] = system: clinical isolates OU15, OU19, and OU22; test: Checkerboard assay, isolates OU15, OU19 and OU22 reported together; type: cell-based, Pseudomonas aeruginosa; conditions: Pseudomonas aeruginosa
Protocol: as §1

[6] = system: P. aeruginosa 27853; test: Checkerboard assay, P. aeruginosa 27853; type: cell-based, Pseudomonas aeruginosa
Protocol: as §2, §1

[7] = system: PA OU12; test: Checkerboard assay, PA OU12; type: cell-based, Pseudomonas aeruginosa
Protocol: as §1

[8] = system: MRSE ATCC 29887 biofilm; test: MBEC assay (challenge plate MIC, recovery plate MBEC), MRSE 29887; type: cell-based, Staphylococcus epidermidis
Protocol: A sub-culture of MRSE was grown from the cryogenic stock on an agar plate overnight at 35° C. The MBEC plate was inoculated with 150 μL of TSB/well plus 1 μL of a stock culture made from 1 colony/mL of MRSE in TSB. The MBEC inoculator plate was sealed with Parafilm and incubated for 24 hours at 35° C. with 100 rpm shaking to facilitate biofilm formation on the prongs. Following biofilm formation, the lid of the MBEC inoculator was removed and placed in a rinse plate containing 200 μL of sterile PBS for 10 sec. Biofilm growth check (BGC) was performed by breaking a few prongs off using sterile pliers, submerging them in 1 mL PBS, and sonicating them on high for 30 minutes to dislodge the biofilm. After sonication, the biofilm solution was serial-diluted and spot-plated on agar plates for CFU counting to determine the biofilm density on the prongs.
A challenge plate was made in a new pre-sterilized 96-well plate in a checkerboard-assay pattern to test the synergistic activity of BPEI+antibiotic combinations. […] After incubation, the OD600 (optical density at 600 nm) of the recovery plate was measured using a Tecan Infinite M20 plate reader to determine the MBEC of the antimicrobial compounds tested. […] Likewise, the OD600 for the base of the challenge plate was measured […] to determine the MICs of the antimicrobial compounds.

[9] = system: P. aeruginosa PA01 ATCC BAA-47; test: MIC/potentiation against P. aeruginosa PA01 (Example 1); type: cell-based, Pseudomonas aeruginosa; conditions: higher inoculum, 5 × 10^7 CFU/ml
[10] = system: PA OU19; test: Checkerboard assay, PA OU19; type: cell-based, Pseudomonas aeruginosa
Protocol: as §1

[11] = system: PA OU15; test: Checkerboard assay, PA OU15; type: cell-based, Pseudomonas aeruginosa
Protocol: as §1

[12] = system: biofilms of P. aeruginosa BAA-47; test: MBEC assay (Calgary biofilm device), PA BAA-47; type: cell-based, Pseudomonas aeruginosa
Protocol: A sub-culture of P. aeruginosa BAA-47 was grown from the cryogenic stock on an agar plate overnight at 35° C. The MBEC plate was inoculated with 150 μL of CAMHB/well plus 1 μL of a stock culture made from 1 colony/mL of P. aeruginosa BAA-47 in CAMHB (˜5×10^5 CFU/mL). The MBEC inoculator plate was sealed with Parafilm™ and incubated for 24 hr at 35° C. with 100 rpm shaking to facilitate biofilm formation on the prongs. Following biofilm formation, the lid of the MBEC inoculator was removed and placed in a rinse plate containing 200 μL of sterile PBS for 10 sec. […] Antimicrobial solutions were serial-diluted and added to the 96-well plate, which contained 200 μL of CAMHB per well. After the rinsing step, the preformed biofilm prong lid was immediately transferred into the prepared antimicrobial challenge plate and incubated at 35° C. for 20-24 hr. […] After incubation, the OD600 of the recovery plate was measured using a Tecan Infinite M20 plate reader to determine the MBEC of the antimicrobial compounds tested. […] Likewise, the OD600 for the base of the challenge plate was measured to determine the MICs of the antimicrobial compounds. The fractional inhibitory concentration index (FICI) calculated based on the established equation was used to determine synergy (FICI≤0.5), additivity (0.5<FICI<1), and no synergy (FICI≥1).

[13] = system: MRSA USA 300 ATCC 1717; test: Checkerboard MIC assay against MRSA USA300 (Example 1); type: cell-based, Staphylococcus aureus; conditions: MRSA USA300
[14] = system: PA OU22; test: Checkerboard assay, PA OU22; type: cell-based, Pseudomonas aeruginosa
Protocol: as §1

MIC ([1]; Escherichia coli, 25922, read-out: piperacillin MIC with 8 μg/mL (13.6 μM) of BPEI600): 0.125 µg/mL
MIC ([1]; Escherichia coli, 25922, read-out: piperacillin MIC with 32 μg/mL (34 μM) of PEG350-BPEI600): 0.25 µg/mL
MIC ([1]; Escherichia coli, 25922, alone, read-out: piperacillin MIC): 1 µg/mL
PIP MIC in combination with BPEI600 ([2]; BPEI600 amount in same cell): 1 µg/mL
MIC ([2]; Pseudomonas aeruginosa, PA BAA-47, agent alone): 4 µg/mL
PIP MIC in combination with 600 Da BPEI [3]: 8 µg/mL and 4 µg/mL
PIP MIC in combination with PEG-BPEI ([3]; PEG-BPEI amount in same cell): 4 µg/mL
MIC ([3]; Pseudomonas aeruginosa, PA OU1, agent alone, piperacillin only, no tazobactam): 64 µg/mL
PIP MIC in combination with 600 Da BPEI ([3]; listed as PIP): 4 µg/mL
MIC ([5]; read-out: piperacillin MIC with BPEI600 at ¼th of its MIC value): 1 to 4 µg/mL
MIC ([5]; isolates OU15, OU19, OU22, agent alone (data not shown), read-out: MIC): > 256 µg/mL
PIP MIC in combination with 600 Da BPEI ([6]; BPEI amount in same cell): 0.25 µg/mL
PIP MIC in combination with PEG-BPEI ([6]; PEG-BPEI amount in same cell): 0.5 µg/mL
MIC ([6]; Pseudomonas aeruginosa, PA 27853, agent alone, piperacillin only, no tazobactam): 4 µg/mL
PIP MIC in combination with BPEI600 ([7]; BPEI600 amount in same cell): 8 µg/mL
MIC ([7]; Pseudomonas aeruginosa, PA OU12, agent alone): 128 µg/mL
MIC ([8]; Staphylococcus epidermidis, MRSE 29887, agent alone): 512 µg/mL
MIC, antibiotic + 0.5 μg/ml (0.85 μM) 600-Da BPEI [9]: 16 µg/mL
MIC, antibiotic + 4 μg/ml (4.25 μM) PEG350BPEI600 [9]: 32 µg/mL
PIP MIC in combination with BPEI600 ([10]; BPEI600 amount in same cell): 1 µg/mL
MIC ([10]; Pseudomonas aeruginosa, PA OU19, agent alone, read-out: MIC): > 256 µg/mL
PIP MIC in combination with BPEI600 ([11]; BPEI600 amount in same cell): 32 µg/mL
MIC ([11]; Pseudomonas aeruginosa, PA OU15, agent alone, read-out: MIC): 128 µg/mL
MIC with 4 μg/ml (6.75 μM) 600-Da BPEI [13]: 1 µg/mL
MIC ([13]; Staphylococcus aureus, agent alone, read-out: MIC of antibiotic only): 4 µg/mL
PIP MIC in combination with BPEI600 ([14]; BPEI600 amount in same cell): 4 µg/mL
MIC ([14]; Pseudomonas aeruginosa, PA OU22, agent alone, read-out: MIC): > 256 µg/mL
Structure (SMILES): CCN1CCN(C(=O)N[C@@H](C(=O)N[C@@H]2C(=O)N3[C@@H]2SC(C)(C)[C@@H]3C(=O)O)c2ccccc2)C(=O)C1=O [piperacillin]
piperacillin concentration preventing biofilm growth with 8 μg/mL of BPEI [4]: 16 µg/mL
piperacillin concentration preventing biofilm growth with 16 μg/mL of BPEI [4]: 8 µg/mL
Minimum Biofilm Inhibitory Concentration (MBIC) ([4]; agent alone, 24 hours): 64 µg/mL
piperacillin concentration eradicating biofilms with 128 μg/mL BPEI ([8]; MRSE 29887 biofilm): 64 µg/mL
piperacillin MBEC in combination with BPEI600 ([12]; 16 μg/mL of BPEI): 8 µg/mL
MBEC ([12]; P. aeruginosa BAA-47 biofilm, agent alone): 256 µg/mL
